Reference: US20260315431A1, “NANOMATERIAL ENCAPSULATED BIOFILM INHIBITORS FOR DENTAL CARIES TREATMENT” (THE UAB RESEARCH FOUNDATION, priority 2023, published 2026)
“Also recorded” adds a separate entry of the source. Like-named read-outs stand apart in the source and are kept apart here.

How the values were obtained:
S. sanguinis SK36 = test: Commensal biofilm inhibition, S. sanguinis SK36 (crystal violet, OD562); type: cell-based, Streptococcus sanguinis; details: 25 μM
Procedure: (§1) The bacterial strains, S. mutans UA159, S. gordonii DL1, and S. sanguinis SK36 were inoculated statically at 37° C. under 5% CO2 in Todd Hewitt Broth (THB) for 24 h. The cultures were then diluted with fresh THB (1:5) and reinoculated until optical density at 470 nm (OD470) reached 1. The optical density was read using BioTek 800TS microplate reader at 470 nm for bacterial growth and 562 nm for biofilm stained with crystal violet. Data was plotted in Graphpad Prism9.
Biofilm inhibition assays. Biofilm inhibition assays were performed in polystyrene microtiter 96 well plates. […] After reading optical density for bacterial growth, the plate was gently washed with water, dried, and stained with crystal violet, and then gently rinsed again with deionized water leaving the stained biofilm at the bottoms of the wells. Biofilms was dissolved in 200 μL of 30% acetic acid and absorbance at 562 nm was used read to determine biofilm biomass. […] Biofilm inhibitory concentration (IC50) of the compounds was determined by serial dilutions.
All bacterial strains (S. mutans UA159, S. gordonii DL1, and S. sanguinis SK36) were inoculated statically at 37° C. under 5% CO2 environment in Todd Hewitt Broth (THB) for 24 h^[61]. […] The optical density was read using BioTek 800 TS absorbance reader at 470 nm for bacterial growth and 562 nm for biofilm stained with crystal violet. […]

S. mutans UA159 = test: Biofilm inhibition, S. mutans UA159 (crystal violet, OD562); type: cell-based, Streptococcus mutans; details: for inhibition at 50 µM: UA159, 50 μM
Procedure: as §1
Biofilm inhibition assays. Biofilm inhibition assays were performed in polystyrene microtiter 96 well plates. Stock solutions were prepared in chemically defined medium (CDM, JRH Biosciences, Lenexa, KS) with 2% sucrose, 1% bacteria cultures and various concentrations of the small molecule inhibitors to examine their activity against biofilm formation as described^69, 70. These stocks were assayed in 96 well plates in triplicate and incubated at 37° C. and 5% CO2 for 16 h. After reading optical density for bacterial growth, the plate was gently washed with water, dried, and stained with crystal violet, and then gently rinsed again with deionized water leaving the stained biofilm at the bottoms of the wells. Biofilms was dissolved in 200 μL of 30% acetic acid and absorbance at 562 nm was used read to determine biofilm biomass. Each assay was carried out at least in triplicate. Biofilm inhibitory concentration (IC50) of the compounds was determined by serial dilutions.
All bacterial strains (S. mutans UA159, S. gordonii DL1, and S. sanguinis SK36) were inoculated statically at 37° C. under 5% CO2 environment in Todd Hewitt Broth (THB) for 24 h^[61]. The cultures were then diluted with fresh THB (1:5) and reinoculated until the optical density at 470 nm reaches 1. The optical density was read using BioTek 800 TS absorbance reader at 470 nm for bacterial growth and 562 nm for biofilm stained with crystal violet. Data was plotted in Prism 10.0.2.
Biofilm inhibition assays were performed in polystyrene microtiter 96-well plates. Stock solutions were prepared in chemically defined medium (CDM) with 1% sucrose, 1% bacteria cultures and various concentrations of the small molecule inhibitors to examine their activity against biofilm formation as described^[62, 63]. These stocks were assayed in 96 well plates in triplicate and incubated at 37° C. and 5% CO2 for 16 h. After reading optical density for bacterial growth, the plate was washed, dried, and stained with 0.1% crystal violet which was again rinsed well with deionized water leaving the stained biofilm at the bottoms of the wells. This biofilm was dissolved in 200 μL of 30% acetic acid and absorbance at 562 nm was read to determine amount of biofilm formation. Each assay was carried out at least in triplicate. Biofilm inhibitor concentration (IC50) of the compounds was determined by serial dilutions from 0 μM-50 μM (1% DMSO).

[1] = Body weight of animals, HEBI / HA5 study; type: in vivo, Fischer 344 rats; details: for Weight: 100 μM (NaF 250 ppm), 4 weeks
Procedure: Rat model of dental caries. In vivo studies of colonization and virulence of S. mutans were evaluated using a previously reported rat model of dental caries^71. Offspring of gnotobiotic Fischer 344 rats used in this experiment were bred and maintained in trexler isolators. Male and female rat pups were removed from isolators at 20 days of age and randomly assigned into 5 treatment groups of 5 rats/group in cages with filter tops. Rats were then infected with S. mutans UA159 strain by oral swabbing daily for four consecutive days with a fresh overnight culture of S. mutans UA159. Rats were provided with caries promoting Teklad Diet 305 containing […] (Harlan Laboratories, Inc., Indianapolis, IN) and sterile drinking water ad libitum. Oral swabs were taken 5 days post-infection and plated on Todd Hewitt (TH) agar plates and incubated at 37° C. in an environment of 5% CO2 in the air to confirm colonization. Rats were weighed at weaning and at the termination of the experiment. One-week post-infection, the molars of the rats were treated topically twice daily for 4 weeks with the test compounds using camel-hair brushes. […] Each sample was serially diluted, plated on blood agar plates (BAP) and mitis-salivarius (MS) agar plates and incubated in an environment of 5% CO2 at 37° C. to quantify the level of total bacteria and S. mutans present in the plaque. […] After drying, the mandibles were sectioned and scored for caries activity using the Keyes method^68. Caries scores were recorded for the buccal, sulcal and proximal molar surfaces individually so that differences among the surfaces can be distinguished. Statistical significance in the mean caries scores, colony-forming units (CFUs)/mandible and body weights between groups of rats were determined by one-way analysis of variance (ANOVA) with the Tukey-Kramer multiple comparison test using the InStat program (Graphpad Software, San Diego, CA). […]

[2] = Streptococcus mutans, UA159, read-out: Biofilm IC50
[3] = Streptococcus mutans, S. mutans UA159 biofilm, read-out: Biofilm IC50

O=C1/C(=C/c2cc(O)c(O)cc2O)Oc2ccccc21 [HA5, 2-[(2′,4′,5′-Trihydroxyphenyl)methylidene]-2,3-dihydro-1-benzofuran-3-one]
S. sanguinis biofilm (S. sanguinis SK36): did not significantly reduce; also recorded: minimal
S. mutans biofilm inhibition (S. mutans UA159; 25 μM): 90%
inhibition at 50 µM (S. mutans UA159; Streptococcus mutans): > 95%
IC50 (S. mutans UA159; [2]): 6.42 µM
inhibition at 25 µM (S. mutans UA159; Streptococcus mutans, UA159, read-out: S. mutans biofilm inhibition, 25 μM): 80%
IC50 (S. mutans UA159; [3]): 6.42 µM
Weight [1]: 137 ± 13 g
weight loss ([1]; 4-week treatment, 100 μM): did not experience any weight loss

O=C1/C(=C/c2cc(O)c(O)c(O)c2)Oc2ccccc21 [HA6, 2-[(3′,4′,5′-Trihydroxyphenyl)methylidene]-2,3-dihydro-1-benzofuran-3-one]
S. sanguinis biofilm (S. sanguinis SK36): did not significantly reduce the biofilms
inhibition at 50 µM (S. mutans UA159; Streptococcus mutans): > 95%
IC50 (S. mutans UA159; [2]): 18.9 µM
IC50 (S. mutans UA159; [3]): 18.9 µM

[F-].[Na+] [NaF, reference compound]
Weight [1]: 161 ± 13 g
